Structures can show the parent of a compound that is named as a salt.

The series can be described thus: in vitro. Particulars: rat, gh3-tre-luc cells.

Usually CC50 stands for the concentration that lowers cell viability or growth by half. Read a low CC50 as greater toxicity to the cells. `CC(O)CN(CC(C)O)CC(C)O` (stereo not shown) [Triisopropanolamine] registered a CC50 at 24 h (AC50 (uM) modified / 1000, Tox21_110001=Tox21_201952, viability, 1 nM T3 present, 24 h) above 90 µM. Where the note is “AC50 (uM) modified / 1000”, `O=[N+]([O-])c1ccc2c(c1)Cc1ccccc1-2` [2-Nitrofluorene] returned a CC50 at 24 h above 90 µM.

For `CCC(Br)(CC)C(=O)NC(N)=O` [Carbromal], the CC50 at 24 h (AC50 (uM) modified / 1000, Tox21_110001=Tox21_302247, viability, 1 nM T3 present, 24 h) is above 90 µM.

`CCCCCCCCCCCCCO` [1-Tridecanol] gave a CC50 at 24 h (AC50 (uM) modified / 1000) above 90 µM.

For `O=C(Nc1ccccc1)Nc1cnns1` [Thidiazuron], the CC50 at 24 h (AC50 (uM) modified / 1000, Tox21_110001=Tox21_300651, viability, 1 nM T3 present, 24 h) is above 90 µM. Regarding `O=C(CCl)c1ccccc1` [2-Chloroacetophenone], the half-maximal cytotoxic concentration (CC50) at 24 h is above 90 µM (AC50 (uM) modified / 1000, Tox21_110001=Tox21_202075, viability, 1 nM T3 present, 24 h) and 62.3 µM (AC50 (uM) modified / 1000, Tox21_110001=Tox21_300045, viability, 1 nM T3 present, 24 h). Compound `Oc1cccc(Nc2ccccc2)c1` [3-Hydroxy-N-phenylaniline] gave a CC50 at 24 h (AC50 (uM) modified / 1000) above 100 µM. In turn, `COc1ccc2c(c1)c1c3n2CCN(C)C3=NCC1` [Metralindole] yielded a CC50 at 24 h (AC50 (uM) modified / 1000) above 50 µM. The same measure, in the same setting: as for `CCOC(=O)C1=C[C@@H](OC(CC)CC)[C@H](NC(C)=O)[C@@H](N)C1` [Oseltamivir tartrate], the figure is above 50 µM; as for `Nc1cccc2c(=O)[nH][nH]c(=O)c12` [Luminol], above 90 µM. Same read-out and setting: as for `O=C(O)C(Cc1cc(I)c(O)c(I)c1)c1ccccc1` (stereo not shown) [Iodoalphionic acid], the figure is above 50 µM.

Consider `COc1cc(C)ccc1C(C)C` [2-Methoxy-4-methyl-1-(propan-2-yl)benzene], for which the CC50 at 24 h (AC50 (uM) modified / 1000) was above 90 µM. The same measure, in the same setting: next, `O=S1(=O)c2cccc3cccc(c23)N1CCCN1CCN(c2ccc(F)cc2)CC1` [Fananserin]: above 50 µM. Still for that read-out and setting: as for `COc1c(C)c2c(c(O)c1C/C=C(\C)CCC(=O)O)C(=O)OC2` [Mycophenolic acid], the figure is 1.55 µM; as for `COC(=O)CSc1cc(/N=c2\sc(=O)n3n2CCCC3)c(F)cc1Cl` [Fluthiacet-methyl], above 90 µM.

Where the note is “AC50 (uM) modified / 1000”, `CCN1CCN(c2cc(-c3ccc(F)cc3)c3c(n2)CCCCCC3)CC1` [Blonanserin] registered a CC50 at 24 h of 20.1 µM. Still for that read-out and setting: as for `NC1=NCC2c3ccccc3Cc3ccccc3N12` (stereo not shown) [Epinastine hydrochloride], the figure is above 50 µM; as for `Nc1ccccc1S(=O)(=O)c1ccccc1` [2-(Phenylsulfonyl)aniline], above 90 µM. For `CCCCCCCCCCCCO` [1-Dodecanol], the CC50 at 24 h (AC50 (uM) modified / 1000) was above 90 µM. The same measure, in the same setting: as for `C[C@H]1CC[C@]2(NC1)O[C@H]1C[C@H]3[C@@H]4CC[C@H]5C[C@@H](O)CC[C@]5(C)[C@H]4CC[C@]3(C)[C@H]1[C@@H]2C` [Tomatidine hydrochloride], the figure is 47 µM; as for `CCC(C)(C)C1CCC(OC)CC1` (stereo not shown) [1-Methoxy-4-tert-pentylcyclohexane], above 90 µM; as for `O=C(O)c1c(Cl)ccc2cc(Cl)cnc12` [Quinclorac], above 90 µM.

`CCOP(=S)(OCC)SCn1nnc2ccccc2c1=O` [Azinphos-ethyl]: for the setting “AC50 (uM) modified / 1000, Tox21_110001=Tox21_301421, viability, 1 nM T3 present, 24 h”, the CC50 at 24 h is above 90 µM. In turn, `CCn1cc(C(=O)O)c(=O)c2cc(F)c(N3CCNC(C)C3)c(F)c21` (stereo not shown) [Lomefloxacin hydrochloride] registered a CC50 at 24 h (AC50 (uM) modified / 1000) above 50 µM. Regarding `Oc1cccc(Cl)c1Cl` [2,3-Dichlorophenol], the CC50 at 24 h (AC50 (uM) modified / 1000, Tox21_110001=Tox21_200909, viability, 1 nM T3 present, 24 h) was above 90 µM. `Nc1nc(=O)n([C@@H]2CS[C@H](CO)O2)cc1F` [Emtricitabine] yielded a CC50 at 24 h (AC50 (uM) modified / 1000) above 50 µM.

The compound `O=C(O)c1cc(C(=O)O)cc(C(=O)O)c1` [1,3,5-Benzenetricarboxylic acid] had a CC50 at 24 h (AC50 (uM) modified / 1000) above 90 µM. The compound `CNC(=O)Oc1c(C(C)(C)C)cc(C)cc1C(C)(C)C` [Terbucarb] had a CC50 at 24 h (AC50 (uM) modified / 1000, Tox21_110001=Tox21_302210, viability, 1 nM T3 present, 24 h) above 90 µM. Where the note is “AC50 (uM) modified / 1000”, `O=[N+]([O-])c1ccc(NCCO)c(OCCO)c1` [HC Yellow 4] returned a 50% cytotoxic concentration (CC50) at 24 h of 58.6 µM. Consider `Nc1nc(NC2CC2)c2ncn([C@H]3C=C[C@@H](CO)C3)c2n1` [Abacavir], for which, where the note is “AC50 (uM) modified / 1000”, the CC50 at 24 h was above 50 µM.

In turn, `CC(=O)Oc1ccc(C2(c3ccc(OC(C)=O)cc3)Oc3ccccc3NC2=O)cc1` [Bisoxatin acetate] came in with a CC50 at 24 h (AC50 (uM) modified / 1000) of 4.41 µM. That is a single-digit micromolar value. Still for that read-out and setting: as for `O=S(=O)(O)c1ccc(O)cc1` [Sodium 4-hydroxybenzenesulfonate], the figure is above 90 µM; as for `C1CCC2OC2C1` (stereo not shown) [Cyclohexene oxide], above 100 µM.

Values taken from PMC6792352, “Limited Chemical Structural Diversity Found to Modulate Thyroid Hormone Receptor in the Tox21 Chemical Library” (Environmental Health Perspectives, 2019).
